Source: the NIST ThermoML archive (doi:10.1021/je700644s)

Experiments:
[1] = molar heat capacity at constant pressure; settings: 101.33 kPa, Crystal
[2] = Crystal; visual observation

N[C@@H](Cc1ccc(O)c(O)c1)C(=O)O [L-3,4-dihydroxyphenylalanine]
[1]
Settings	molar heat capacity at constant pressure [J/K/mol]
78.47 K	71.34
79.83 K	72.35
81.49 K	73.75
83 K	75.18
84.82 K	76.68
86.63 K	78.19
88.44 K	79.6
89.94 K	80.73
91.35 K	82.27
93.06 K	83.62
94.81 K	84.79
97.14 K	86.2
98.89 K	87.89
100.72 K	89.28
102.64 K	90.78
104.71 K	92.24
106.74 K	93.97
108.74 K	95.89
110.71 K	97.8
112.66 K	99.36
114.58 K	101.07
116.47 K	103
118.5 K	104.72
120.65 K	106.43
122.77 K	108.44
124.86 K	110.39
126.96 K	112.16
129.01 K	113.95
131.02 K	115.5
133.03 K	117.12
135.03 K	118.6
136.99 K	120.14
138.96 K	121.84
140.87 K	123.73
142.78 K	125.45
144.7 K	127.02
146.71 K	128.82
148.67 K	130.53
150.67 K	132.25
152.73 K	133.85
154.83 K	135.87
156.88 K	137.96
158.94 K	139.53
160.94 K	141.56
162.95 K	143.5
164.96 K	144.99
166.92 K	146.4
168.93 K	148.17
170.89 K	150.21
172.8 K	151.86
174.76 K	153.4
176.68 K	155.02
178.59 K	156.36
180.49 K	157.89
182.37 K	159.54
184.4 K	161.1
186.39 K	162.67
188.35 K	164.31
190.45 K	165.92
192.51 K	167.41
194.57 K	169.47
196.6 K	171.19
198.74 K	173.02
200.73 K	174.55
202.72 K	176.35
204.75 K	178.18
206.74 K	179.9
208.73 K	181.7
210.72 K	183.49
212.57 K	185.1
214.57 K	186.74
216.49 K	188.38
218.41 K	190.07
220.37 K	191.82
222.25 K	193.7
224.06 K	195.34
226.73 K	197.52
229.58 K	199.77
232.56 K	202.63
235.59 K	205.29
238.77 K	207.95
241.76 K	210.58
244.74 K	212.99
247.73 K	215.37
250.77 K	218.1
253.75 K	220.62
256.74 K	223
259.76 K	225.81
262.77 K	228.18
265.75 K	230.91
268.6 K	233.5
271.68 K	236.23
274.76 K	239.03
277.82 K	242.01
280.88 K	244.64
283.92 K	247.23
286.95 K	249.5
289.94 K	252.13
292.92 K	255.42
295.76 K	258.06
298.79 K	261
301.77 K	263.53
304.66 K	266.35
307.79 K	269.29
310.97 K	272.35
313.95 K	275.23
317.08 K	278.06
320.26 K	281.06
323.2 K	284.12
325.79 K	286.4
328.38 K	288.56
331.07 K	291.45
333.76 K	293.85
336.37 K	296.31
338.98 K	299.04
341.74 K	301.82
344.65 K	304.77
347.41 K	307.5
350.17 K	309.96
352.94 K	312.58
355.85 K	315.2
358.46 K	317.71
361.22 K	320.33
363.98 K	323.17
366.59 K	325.79
369.35 K	328.08
372.11 K	330.75
374.87 K	333.1
377.49 K	335.94
380.09 K	338.83
382.85 K	341.72
385.61 K	344.62
388.83 K	347.29
391.44 K	350.03
394.35 K	352.91
396.81 K	355.28
399.26 K	357.83

Settings	Normal melting temperature [°C]
[2]	277.00
